Reference: patent US10100284B2, “Method for inducing differentiation of pluripotent stem cells into endodermal cells” (TOAGOSEI CO., LTD., priority 2013, dated 2018)
Where no end group is shown, it is not given here.

Legend:
[1] = test system: iPS cells (clone name: 201B2 or 201B7); assay: ALB ELISA of iPS cell culture supernatant; format: cell-based, human; conditions: peptide concentration in medium 6 μM; as culture time increased; FIG. 4
Experimental: The stem cell differentiation-inducing activity of the differentiation-inducing synthetic peptide (Sample 1) obtained in Example 1 was evaluated by quantifying changes over time in the expressed amounts (typically extracellular secretion) of AFP and ALB, which are proteins known as markers of differentiation into endodermal cells. It is known that AFP is expressed in cells that have differentiated into liver precursor cells among the endodermal cells, while ALB is expressed in cells that have differentiated sufficiently to function effectively as hepatocytes (that is, hepatocytes or hepatocyte-like cells). […]
50 μL of the accessory Chromogen Substrate Solution (coloring reagent) was then added per well, and left standing for 15 minutes in the dark. […] Absorbance A450 at 450 nm and absorbance A550 at 550 nm were then measured with a spectrophotometer in the reaction liquid in the wells.
Absorbance values A(450-550) were calculated by subtracting the absorbance A550 from the absorbance A450 obtained by the previous measurement (that is, absorbance A(450-550)=[…]) for each of the samples from the AFP evaluation test group and ALB evaluation test group. […]

[2] = test system: iPS cells (clone name: 201B2 or 201B7); assay: Quantitative RT-PCR of stem cell marker gene and germ layer differentiation marker genes in iPS cells; format: cell-based, human; conditions: peptide concentration 6.0 μM, FIG. 3
Experimental: The stem cell differentiation-inducing activity of a differentiation-inducing synthetic peptide (Sample 1) obtained in Example 1 above was evaluated by measuring changes over time in the expressed amounts of a stem cell differentiation marker gene (that is, a stem cell marker gene) and differentiation marker genes for the three kinds of germ layer cells. iPS cells that had been cultured and passaged in vitro were used as the test cells. The specifics of the evaluation test were as follows.
iPS cells (clone name: 201B2 or 201B7) were cultured as in Example 2 except that Sample 1 that had been prepared with DMSO/EtOH=1/1 to a peptide concentration of 4 mM was added 1.5 μL/well (that is to a peptide concentration of 6.0 μM in the well). A peptide-free group was also established as a comparative example. The medium was replaced and peptide was added two days, four days and six days after initiation of iPS cell culture. […]
25 to […] of purified RNA was supplied to quantitative RT-PCR, and the expressed amounts of a stem cell marker gene and differentiation marker genes for the three kinds of germ layer cells were quantified. […] A One Step SYBR® PrimeScript® PLUS RT-PCR Kit (TaKaRa Bio) was used for the quantitative RT-PCR, in accordance with the attached manual. […] The quantitative RT-PCR reaction consisted of 5 minutes of incubation at 42° C. to perform reverse transcription, followed by 10 seconds of incubation at 95° C., and 40 cycles consisting of 5 seconds at 95° and 31 seconds at 63° C.
The quantitative results for expression of a stem cell marker gene and differentiation marker genes for the three kinds of germ layer cells are shown in FIG. 3. The expressed amounts of these genes were first corrected by the expressed amounts of the GAPDH gene in each test group, and the relative expressed amount of the gene in the Sample 1 group relative to the expressed amount of the gene in the peptide-free group was determined by the ΔΔCt method.

LLLLLLVGLTAPAGKKRTLRKNDRKKR-CONH2 (LLLLLLVGLTAPAGKKRTLRKNDRKKR-NH2) [Sample 1]
ALB level of the culture supernatant in comparison with peptide-free group with the same culture time [1]: increased dramatically
increase in the relative expressed amount of the AFP gene ([2]; 20th day after initiation of culture): particularly dramatic
expression timing of endodermal cell marker genes SOX17, GATA4 and FOXA2 [2]: sooner than the AFP gene
relative expressed amount of the AFP gene (endodermal marker gene) relative to peptide-free group (ΔΔCt, GAPDH corrected) ([2]; beginning 13 days after initiation of culture): increased much more than the relative expressed amounts of the other genes
